Reference: PMC4971050 (Forensic Toxicology, 2016)

Key:
human CB1 receptor = human CB1 receptor (Homo sapiens, UniProt P21554); assay: FLIPR membrane potential assay; type: cell-based; conditions: for EC50: membrane potential; for hCB1 Max ± SEM (% CP 55,940): maximum drug effect as percentage of maximally effective (1 µM) CP 55,940; for CB1 selectivity: ratio of CB2 EC50 to CB1 EC50
human CB2 receptor = human CB2 receptor (Homo sapiens, UniProt P34972); assay: FLIPR membrane potential assay; type: cell-based; conditions: for EC50: membrane potential; for hCB2 Max ± SEM (% CP 55,940): maximum drug effect as percentage of maximally effective (1 µM) CP 55,940; for hCB2 Max ± SEM (% CP 55,940) at 30 µM: effect at 30 µM, highest concentration tested, relative to 1 µM CP 55,940
Sequence of human CB2 receptor (P34972 whole entry): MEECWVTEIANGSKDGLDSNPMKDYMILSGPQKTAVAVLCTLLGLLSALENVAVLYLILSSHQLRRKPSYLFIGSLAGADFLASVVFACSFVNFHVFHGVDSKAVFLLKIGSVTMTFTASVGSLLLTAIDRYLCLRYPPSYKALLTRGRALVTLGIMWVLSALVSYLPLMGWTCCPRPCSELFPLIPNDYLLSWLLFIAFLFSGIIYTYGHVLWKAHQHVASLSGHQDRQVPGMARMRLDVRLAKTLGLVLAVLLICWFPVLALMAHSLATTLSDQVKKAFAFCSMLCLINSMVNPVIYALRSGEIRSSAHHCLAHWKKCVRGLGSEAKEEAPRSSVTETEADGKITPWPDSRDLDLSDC

[1] = hCB2 pEC50 ± SEM, AtT-20-CB2 cells
[2] = hCB1 pEC50 ± SEM, AtT-20-CB1 cells

Sequence of human CB1 receptor (P21554 whole entry): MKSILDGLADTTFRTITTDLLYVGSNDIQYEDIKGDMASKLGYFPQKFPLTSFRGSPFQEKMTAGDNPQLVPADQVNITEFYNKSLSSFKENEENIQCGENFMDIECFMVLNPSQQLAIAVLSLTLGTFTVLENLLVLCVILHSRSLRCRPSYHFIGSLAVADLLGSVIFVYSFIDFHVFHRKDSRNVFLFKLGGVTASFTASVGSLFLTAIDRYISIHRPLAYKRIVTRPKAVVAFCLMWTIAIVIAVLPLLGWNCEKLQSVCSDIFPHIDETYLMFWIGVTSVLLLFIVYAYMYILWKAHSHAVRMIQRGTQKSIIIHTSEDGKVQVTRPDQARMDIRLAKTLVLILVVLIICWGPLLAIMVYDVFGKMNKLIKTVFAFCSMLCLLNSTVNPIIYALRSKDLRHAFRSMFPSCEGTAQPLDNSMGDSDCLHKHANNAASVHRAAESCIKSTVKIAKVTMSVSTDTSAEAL

Compound | EC50 (human CB1 receptor; hCB1 EC50, AtT-20-CB1 cells) [nM] | hCB1 Max ± SEM (% CP 55,940) (human CB1 receptor) | CB1 selectivity (human CB1 receptor) | EC50 (human CB2 receptor; [1]) [nM] | hCB2 Max ± SEM (% CP 55,940) (human CB2 receptor) | EC50 (human CB1 receptor; [2]) [nM] | EC50 (human CB2 receptor; hCB2 EC50, AtT-20-CB2 cells) [nM] | hCB2 Max ± SEM (% CP 55,940) at 30 µM (human CB2 receptor) | hCB1 Max ± SEM (% CP 55,940) at 30 µM (human CB1 receptor; effect at 30 µM, highest concentration tested, relative to 1 µM CP 55,940)
CC(C)[C@H](NC(=O)c1nn(CC2CCCCC2)c2ccccc12)C(N)=O [compound 3, (S)-N-(1-Amino-3-methyl-1-oxobutan-2-yl)-1-(cyclohexylmethyl)-1H-indazole-3-carboxamide] | 7.8 | 142 ± 18 % CP 55,940 | 2.7 | 20.9 | 104 ± 11 % CP 55,940 | – | – | – | –
CC(C)[C@H](NC(=O)c1nn(Cc2ccc(F)cc2)c2ccccc12)C(N)=O [compound 4, (S)-N-(1-Amino-3-methyl-1-oxobutan-2-yl)-1-(4-fluorobenzyl)-1H-indazole-3-carboxamide] | – | 151 ± 14 % CP 55,940 | 3.2 | – | 98 ± 10 % CP 55,940 | 2.14 | 6.7 | – | –
CCCCCn1nc(C(=O)N[C@H](C(N)=O)C(C)C)c2ccccc21 [compound 5, (S)-N-(1-Amino-3-methyl-1-oxobutan-2-yl)-1-pentyl-1H-indazole-3-carboxamide] | 6.5 | 142 ± 15 % CP 55,940 | 1.5 | 9.77 | 102 ± 9 % CP 55,940 | – | 9.9 | – | –
CC(C)[C@H](NC(=O)c1nn(CCCCCF)c2ccccc12)C(N)=O [compound 6, (S)-N-(1-Amino-3-methyl-1-oxobutan-2-yl)-1-(5-fluoropentyl)-1H-indazole-3-carboxamide] | – | 132 ± 9 % CP 55,940 | 2.0 | – | 98 ± 8 % CP 55,940 | 2.82 | 5.6 | – | –
CC(C)[C@H](NC(=O)c1c2ccccc2nn1CC1CCCCC1)C(N)=O [compound 7, (S)-N-(1-Amino-3-methyl-1-oxobutan-2-yl)-2-(cyclohexylmethyl)-2H-indazole-3-carboxamide] | – | – | – | – | – | – | – | 45 ± 7 (at 30 µM) % CP 55,940 | –
CC(C)[C@H](NC(=O)c1c2ccccc2nn1Cc1ccc(F)cc1)C(N)=O [compound 8, (S)-N-(1-Amino-3-methyl-1-oxobutan-2-yl)-2-(4-fluorobenzyl)-2H-indazole-3-carboxamide] | – | – | – | – | – | – | – | 25 ± 4 (at 30 µM) % CP 55,940 | 61 ± 12 (at 30 µM) % CP 55,940
CCCCCn1nc2ccccc2c1C(=O)N[C@H](C(N)=O)C(C)C [compound 9, (S)-N-(1-Amino-3-methyl-1-oxobutan-2-yl)-2-pentyl-2H-indazole-3-carboxamide] | 4080 | – | 1.0 | – | – | – | 4120 | – | –
CC(C)[C@H](NC(=O)c1c2ccccc2nn1CCCCCF)C(N)=O [compound 10, (S)-N-(1-Amino-3-methyl-1-oxobutan-2-yl)-2-(5-fluoropentyl)-2H-indazole-3-carboxamide] | 1930 | – | 1.5 | – | – | 1910 | 2980 | 47 ± 15 (at 30 µM) % CP 55,940 | –
